For one compound, IC50 results are on record in patent US5510371A, “Inhibitors of farnesyl-protein transferase” (Merck & Co., Inc., priority 1994, dated 1996).

The test addresses T1, human recombinant farnesyl-protein transferase (Homo sapiens, UniProt P49354+P49356).
T1 construct: made in house; host or cells: Escherichia coli
Kind of test: In vitro inhibition of ras farnesyl transferase. The test is classed as biochemical. The settings on record: 50 nM 3H-FPP, 0.1 μM ras-CVIM, 2 μg human recombinant FPTase, pH 7.5, 30 minutes at 31° C.; read-out: LC50 (nM) (IC50: concentration of the test compound which gives 50% inhibition of FPTase). The method, then: In vitro inhibition of ras farnesyl transferase
Human FPTase was expressed in Escherichia coli and then the recombinant protein was purified as described by Omer, et al., Biochemistry 32, 5167 (1993). The assay was performed in a volume of 100 μl containing 100 mM N-(2-hydroxy ethyl) piperazine-N'-(2-ethane sulfonic acid) (HEPES), pH 7.5, 5 mM MgCl2, 5 mM dithiothreitol (DTT), 10 μM ZnCl2, 0.1% (w/v) polyethylene glycol 20,000, 50 nM 3H!-Farnesyl Pyrophosphate ( 3H!-FPP, […], NEN-DuPont), 0.1 μM ras-CVIM and 2 μg of human recombinant farnesyl-protein transferase. The assay was run in the presence of the compound(s) for 30 minutes at 31° C. and then quenched by placing the tubes in an ice bath for 5 minutes. Trichloracetic acid (TCA, 0.1 ml of 30% (v/v) in ethanol followed by 50 μl of 0.25% (w/v) Bovine Serum Albumin in water was added to the tubes, vortexed for 5 minutes then placed in a 37° C. water bath for 30 minutes to facilitate the hydrolysis of the unused farnesyl pyrophosphate. The precipitate was collected on a Packard double thickness filtermat, using a Tomtec Mach II Cell Harvester and washed with 8 ml of 100% Ethanol. The filtermats were dried in a microwave oven and counted in a LKB Betaplate counter. The compounds were dissolved in dimethyl sulfoxide and were diluted 20-fold into the assay.
Inhibition of RAS farnesylation by compounds of this invention* […]

T1 sequence (P49356 whole entry, one chain of several): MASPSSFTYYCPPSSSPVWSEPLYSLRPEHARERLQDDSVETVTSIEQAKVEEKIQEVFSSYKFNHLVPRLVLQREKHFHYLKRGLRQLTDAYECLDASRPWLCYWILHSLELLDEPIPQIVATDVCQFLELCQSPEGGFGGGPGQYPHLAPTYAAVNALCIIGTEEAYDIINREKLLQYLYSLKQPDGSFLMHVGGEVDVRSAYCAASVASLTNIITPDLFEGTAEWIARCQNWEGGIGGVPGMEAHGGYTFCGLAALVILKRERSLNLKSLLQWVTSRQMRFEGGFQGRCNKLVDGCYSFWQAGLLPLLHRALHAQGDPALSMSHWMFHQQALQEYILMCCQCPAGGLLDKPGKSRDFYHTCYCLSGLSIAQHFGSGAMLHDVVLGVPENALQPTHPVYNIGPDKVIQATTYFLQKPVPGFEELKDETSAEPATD

For `CCC(CC(C)C(=O)O)C(=O)CCC1=CC(C)CC(C)=CC(C)C(O)C(C)CCC(CCCCC=CC(C)CCC(C)OC(=O)CC(CC(=O)O)C(=O)O)OC(=O)CC(C(=O)O)CC(=O)OC1` (stereo not shown) [Compound 1, 1,2,3-propanetricarboxylic acid 1-10-4-carboxy 19-(6-carboxy-4-ethyl-3-oxoheptyl)-12-hydroxy-11,13,15,17-tetramethyl-2,6-dioxo-1,7-dioxacycloeiocosa-14,18-dien-8-yl!-1,4-dimethyl-5-decenyl! ester], the IC50 is 230 nM.
